Test: Shelf stability of the loaded reservoir electrode assembly in storage
Format: physicochemical
Settings: incorporated into the reservoir
Source text: In the present example, an aqueous loading solution of 30% lidocaine HCI, 3% epinephrine, 30% glycerin, 0.05% sodium metabisulfite, 0.03% ethylene diamine tetraacetic acid, and 0.06% citric acid are used for the loading solution. The medicaments for delivery are lidocaine HCI and epinephrine, the glycerin serves as a humectant, the other minor components serve to enhance drug stability by chelating metal ions and serving as antioxidants. In order to load this solution onto the reservoir with electrode 112, laminate release liner 132 is removed from side 118 of reservoir 114 and a three-hundred microliter aliquot of this loading solution is applied to exposed surface 118, which is then covered with a final cover that remains in place until the reservoir is applied to a patient to protect the reservoir.

shelf stability of labile medicament: satisfactory shelf stability
Structure (SMILES): CNC[C@H](O)c1ccc(O)c(O)c1 [epinephrine, Epinephrine Bitartrate]
